1 compound from US12077486B2, “Quaternary fatty amidoamine detergents” (NOURYON CHEMICALS INTERNATIONAL B.V., priority 2018, dated 2024) can be followed below.

The nature of data set [1]: stabilization of a dispersion of solids in a-polar medium. The note with it: over a wide range of temperatures.
Data set [2] is described as follows: solubility in an a-polar medium. It is filed as physicochemical. On the procedure: Throughout this document, unless indicated differently, the weight percentages of the compositions are based on the total weight of the composition, whereby the total weight of the composition is 100 wt %. The term water-soluble is used for materials that dissolve in an amount of at least 1 g per liter of demineralized water at 25° C. Where used, the term “consisting” also embraces “consisting substantially”, but may optionally be limited to its strict meaning of “consisting entirely”. An a-polar (nonpolar) medium is herein defined as a material having a dielectric coefficient of less than 7 at 20° C. Typically it is a liquid at the temperature of use. Suitably it is a medium with a dielectric coefficient at 20° C. of less than 6.5, 6, 5.5, 5, 4.5, 4, 3.5, or 3. The dielectric constant is measured in accordance with ASTM D150. The term “substantially free” is used fora moiety that is present in an amount of less than 2% by weight. Similarly, the term “essentially” is used to denote a composition that consists for more than 95% by weight of the indicated components.

In the case of `CCCCC/C=C\CCC(CCCCCCCC(=O)NCCC[N+](C)(C)C)C(CCCCCCCC)CCCCCCCCC(=O)NCCC[N+](C)(C)C` (centres unmarked) [Preparation Example 1], in data set [1], the “stabilization of a dispersion of solids in the dissolution” value is given as “perfectly stabilize”. For the same compound, the “dissolution in an a-polar medium” value in data set [2] is given as “easily dissolve”.
